In US6087358A (priority 1997, dated 2000):
In brackets after ≈: the same amount, converted by molar mass. Like-named read-outs stand apart in the source and are kept apart here.

How the values were obtained:
[1] = system: Mycobacterium bovis (rBCG-lux); test: microbe, parasite or virus in culture; type: cell-based, Mycobacterium bovis bacille Calmette Guerin; settings: Mycobacterium tuberculosis variant bovis, 72 h; read-out: % of control, measured in RLUs
Helicobacter pylori = test: In vitro inhibition of Helicobacter pylori (broth microdilution MIC); settings: for MICs of control drugs relative to expected values: H. pylori ATCC 43; for MIC: Helicobacter pylori
[2] = system: M. tuberculosis H37 Rv in human THP-1 macrophages; test: In vitro activity against M. tuberculosis in human macrophages (luciferase bioluminescence); type: cell-based, Mycobacterium tuberculosis, in human THP-1 cells
[3] = system: Clostridium difficile ATCC 17857; test: In vitro inhibition of Clostridium difficile (Oxyrase broth microdilution MIC); type: cell-based; settings: Clostridioides difficile, ATCC17857; Clostridium difficile ATCC 17857, Oxyrase broth; read-out: MIC, column D, 3(S) compounds
[4] = system: Mycobacterium bovis BCG (recombinant strain); test: microbe, parasite or virus in culture; type: cell-based; settings: Mycobacterium tuberculosis variant bovis BCG, BCG, 144 h; 6 days 37° C.; read-out: MIC, column A, 3(S) compounds
[5] = 72 h, read-out: MIC against Helicobacter pylori, strain 17 (Table 5A)
[6] = 72 h, read-out: MIC against Helicobacter pylori, strain 19 (Table 5A)
[7] = 72 h, read-out: MIC against Helicobacter pylori, strain 20 (Table 5A)
[8] = 72 h, read-out: MIC against Helicobacter pylori, strain 40 (Table 5A)
[9] = 72 h, read-out: MIC against Helicobacter pylori, strain 43 (Table 5A)
[10] = 72 h, read-out: MIC against Helicobacter pylori, strain 76 (Table 5A)
[11] = ATCC43504, 72 h, read-out: MIC against Helicobacter pylori, strain ATCC 43504 (Table 5A)

NCC[C@H](O)C(=O)N[C@@H]1C[C@H](N)[C@@H](O[C@H]2O[C@H](CN)[C@@H](O)[C@H](O)[C@H]2O)[C@H](O)[C@H]1O[C@H]1O[C@H](CO)[C@@H](O)[C@H](N)[C@H]1O [Amikacin] was tested, and the activity at 0.15 µg/mL [1] was 52.9%, the activity at 0.31 µg/mL [1] was 31.7% and the activity at 0.62 µg/mL [1] was 18.9%. It also gave an activity at 1.25 µg/mL [1] of 18.1%, an activity at 2.5 µg/mL [1] of 10.7% and an activity at 5 µg/mL [1] of 5.2%.

With CC1(C)S[C@@H]2[C@H](NC(=O)[C@H](N)c3ccc(O)cc3)C(=O)N2[C@H]1C(=O)O [Amoxicillin, reference compound] the “MICs of control drugs relative to expected values” (Helicobacter pylori) was “within the expected values”, the MIC (Helicobacter pylori; [5]) was 0.016 µg/mL (≈ 0.0438 µM) and the MIC (Helicobacter pylori; [6]) was 0.016 µg/mL (≈ 0.0438 µM). The MIC (Helicobacter pylori; [7]) was 0.032 µg/mL (≈ 0.0876 µM), the MIC (Helicobacter pylori; [8]) was 0.032 µg/mL (≈ 0.0876 µM) and the MIC (Helicobacter pylori; [9]) was 0.016 µg/mL (≈ 0.0438 µM). For the same compound, the MIC (Helicobacter pylori; [10]) was 0.032 µg/mL (≈ 0.0876 µM) and the MIC (Helicobacter pylori; [11]) was 0.06 µg/mL (≈ 0.164 µM).

With CC[C@@H](CO)NCCN[C@@H](CC)CO [Ethambutol] the activity at 0.15 µg/mL [1] was 179%, the activity at 0.31 µg/mL [1] was 152% and the activity at 0.62 µg/mL [1] was 98.8%. The activity at 1.25 µg/mL [1] was 148%, the activity at 2.5 µg/mL [1] was 54.8% and the activity at 5 µg/mL [1] was 53.1%.

NNC(=O)c1ccncc1 [Isoniazid, reference compound] gave an activity at 0.15 µg/mL [1] of 158%, an activity at 0.31 µg/mL [1] of 122% and an activity at 0.62 µg/mL [1] of 110%. The activity at 1.25 µg/mL [1] was 51.1%, the activity at 2.5 µg/mL [1] was 34.1% and the activity at 5 µg/mL [1] was 11.4%. For the same compound, the RLU values ([2]; 0.03 μg/mL, day 1) was 20360 RLU, the RLU values ([2]; 0.03 μg/mL, day 2) was 61355 RLU and the RLU values ([2]; 0.03 μg/mL, day 3) was 89528 RLU. For the same compound, the RLU values ([2]; 0.03 μg/mL, day 4) was 68253 RLU, the RLU values ([2]; 0.03 μg/mL, day 7) was 89032 RLU and the RLU values ([2]; 0.06 μg/mL, day 1) was 32192 RLU. It also gave an RLU values ([2]; 0.06 μg/mL, day 2) of 36680 RLU, an RLU values ([2]; 0.06 μg/mL, day 3) of 40344 RLU and an RLU values ([2]; 0.06 μg/mL, day 4) of 27408 RLU. The RLU values ([2]; 0.06 μg/mL, day 7) was 15855 RLU, the RLU values ([2]; 0.13 μg/mL, day 1) was 31113 RLU and the RLU values ([2]; 0.13 μg/mL, day 2) was 33898 RLU. It also gave an RLU values ([2]; 0.13 μg/mL, day 3) of 36634 RLU, an RLU values ([2]; 0.13 μg/mL, day 4) of 25282 RLU and an RLU values ([2]; 0.13 μg/mL, day 7) of 13373 RLU.

For Cc1ncc([N+](=O)[O-])n1CCO [Metronidazole, reference compound], the “MICs of control drugs relative to expected values” (Helicobacter pylori) was “within the expected values”, the MIC (Helicobacter pylori; [5]) was 32 µg/mL (≈ 187 µM) and the MIC (Helicobacter pylori; [6]) was 0.25 µg/mL (≈ 1.46 µM). It also gave an MIC (Helicobacter pylori; [7]) of 1 µg/mL (≈ 5.84 µM), an MIC (Helicobacter pylori; [8]) of 0.25 µg/mL (≈ 1.46 µM) and an MIC (Helicobacter pylori; [9]) of 0.032 µg/mL (≈ 0.187 µM). The MIC (Helicobacter pylori; [10]) was 32 µg/mL (≈ 187 µM), the MIC (Helicobacter pylori; 72 h, read-out: MIC against Helicobacter pylori, strain B40, Met-S, Clar-S (Table 5B)) was < 0.5 µg/mL and the MIC (Helicobacter pylori; 72 h, read-out: MIC against Helicobacter pylori, strain B76, Met-R, Clar-S (Table 5B)) was 8 µg/mL (≈ 46.7 µM). The MIC (Helicobacter pylori; 72 h, read-out: MIC against Helicobacter pylori, strain C1649, Met-R, Clar-R (Table 5B)) was 16 µg/mL (≈ 93.5 µM), the MIC (Helicobacter pylori; 72 h, read-out: MIC against Helicobacter pylori, strain C11403, Met-S, Clar-R (Table 5B)) was < 0.5 µg/mL and the MIC (Helicobacter pylori; 72 h, read-out: MIC against Helicobacter pylori, strain C19765 (Table 5B)) was 8 µg/mL (≈ 46.7 µM). For the same compound, the MIC (Helicobacter pylori; 72 h, read-out: MIC against Helicobacter pylori, strain RD26, Met-S, Clar-S (Table 5B)) was 1 µg/mL (≈ 5.84 µM), the MIC (Helicobacter pylori; 72 h, read-out: MIC against Helicobacter pylori, strain rd26, Met-S, Clar-S (Table 5B)) was 1 µg/mL (≈ 5.84 µM) and the MIC (Helicobacter pylori; [11]) was 128 µg/mL (≈ 748 µM). The MIC (Helicobacter pylori; ATCC43504, 72 h, read-out: MIC against Helicobacter pylori, strain ATCC 43504, Met-R, Clar-S (Table 5B)) was 128 to 256 µg/mL (≈ 748 to 1500 µM), the MIC (Helicobacter pylori; ATCC43526, 72 h, read-out: MIC against Helicobacter pylori, strain ATCC 43526, Met-R, Clar-S (Table 5B)) was 16 µg/mL (≈ 93.5 µM) and the MIC (Helicobacter pylori; ATCC43579, 72 h, read-out: MIC against Helicobacter pylori, strain ATCC 43579, Met-S, Clar-S (Table 5B)) was 2 µg/mL (≈ 11.7 µM). The MIC (Helicobacter pylori; ATCC43629, 72 h, read-out: MIC against Helicobacter pylori, strain ATCC 43629, Met-S, Clar-S (Table 5B)) was < 0.5 µg/mL.

In the case of CCCCCCCCO[C@@H]1COc2nc([N+](=O)[O-])cn2C1 [PA-602, 3S n-Octyloxy-6-nitro-2H-3,4-dihydro-[2-1b]imidazopyran], the MIC [3] is reported as 3.12 µg/mL (≈ 10.5 µM) and the MIC [4] is reported as < 5 µg/mL.

With O=[N+]([O-])c1cn2c(n1)OC[C@@H](OCc1ccc(C(F)(F)F)cc1C(F)(F)F)C2 [PA-646] the MIC [3] was 3.12 µg/mL (≈ 7.59 µM) and the MIC [4] was < 5 µg/mL.

With O=[N+]([O-])c1cn2c(n1)OC[C@@H](OCc1ccccc1)C2 [PA-651] the MIC [3] was 3.12 µg/mL (≈ 11.3 µM) and the MIC [4] was > 5 µg/mL.

In the case of O=[N+]([O-])c1cn2c(n1)OC[C@@H](OCc1c(F)c(F)c(F)c(F)c1F)C2 [PA-652], the MIC [3] is reported as 3.12 µg/mL (≈ 8.54 µM) and the MIC [4] is reported as > 5 µg/mL.

With O=[N+]([O-])c1cn2c(n1)OC[C@@H](OCc1ccc(F)cc1F)C2 [PA-654] the MIC [3] was 3.12 µg/mL (≈ 10 µM) and the MIC [4] was > 5 µg/mL.
